Key:
[1] = target: T1, mGluR5 receptors (Rattus norvegicus, UniProt P31424); assay: Cytosolic calcium studies with astrocytes (FLIPR), functional assay of mGluR5 receptors; type: cell-based; conditions: for r left shift: Table A1, left shift of quisqualate EC50 in the presence and absence of 10 µM modulator; for EC50: Table A1, positive modulators, fixed concentration of quisqualate (normally 10-30 nM), read-out: rEC50
T1 construct: Primary astrocyte cultures are prepared from cortices of newborn rats; endogenous in cells; host or cells: primary cortical astrocytes from Sprague-Dawley rat pups (2-4 d old)
T1 sequence (P31424 21-1203): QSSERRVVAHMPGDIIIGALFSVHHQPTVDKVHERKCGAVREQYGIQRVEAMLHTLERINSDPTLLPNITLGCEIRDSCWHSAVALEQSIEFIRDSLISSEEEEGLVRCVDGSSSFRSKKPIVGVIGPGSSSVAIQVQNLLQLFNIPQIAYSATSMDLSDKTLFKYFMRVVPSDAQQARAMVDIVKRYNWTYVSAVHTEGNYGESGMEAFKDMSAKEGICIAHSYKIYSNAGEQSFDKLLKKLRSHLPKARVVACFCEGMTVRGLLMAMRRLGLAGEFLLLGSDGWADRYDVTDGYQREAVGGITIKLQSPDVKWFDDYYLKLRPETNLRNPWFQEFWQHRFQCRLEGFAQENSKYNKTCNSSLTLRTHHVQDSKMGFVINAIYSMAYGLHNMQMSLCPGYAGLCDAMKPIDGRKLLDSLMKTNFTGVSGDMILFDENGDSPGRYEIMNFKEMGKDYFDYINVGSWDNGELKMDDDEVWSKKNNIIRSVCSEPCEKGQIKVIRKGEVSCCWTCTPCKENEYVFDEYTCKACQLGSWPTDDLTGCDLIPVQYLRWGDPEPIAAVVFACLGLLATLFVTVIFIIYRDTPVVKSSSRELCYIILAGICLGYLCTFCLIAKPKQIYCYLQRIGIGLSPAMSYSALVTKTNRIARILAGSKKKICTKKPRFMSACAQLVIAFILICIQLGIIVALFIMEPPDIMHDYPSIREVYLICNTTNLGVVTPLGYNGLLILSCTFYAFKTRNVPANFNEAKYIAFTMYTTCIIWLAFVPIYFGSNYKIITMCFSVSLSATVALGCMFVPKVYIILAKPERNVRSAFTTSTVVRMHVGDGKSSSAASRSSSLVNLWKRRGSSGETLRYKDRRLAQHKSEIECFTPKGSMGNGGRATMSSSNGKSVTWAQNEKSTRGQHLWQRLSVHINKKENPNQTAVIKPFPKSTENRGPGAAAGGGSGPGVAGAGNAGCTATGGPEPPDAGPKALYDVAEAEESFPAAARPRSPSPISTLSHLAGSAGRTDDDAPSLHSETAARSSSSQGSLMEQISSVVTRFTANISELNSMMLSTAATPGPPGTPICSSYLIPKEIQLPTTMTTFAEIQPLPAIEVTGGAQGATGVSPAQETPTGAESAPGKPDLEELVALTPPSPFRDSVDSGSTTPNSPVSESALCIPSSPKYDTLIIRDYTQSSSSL
Experimental: Primary astrocyte cultures are prepared from cortices of newborn rats as described by Booher and Sensenbrenner (1972, Neurobiology 2(3):97-105). Briefly, Sprague-Dawley rat pups (2 - 4 d old) are decapitated and neocortices are dissected, disintegrated with a nylon filter (pore size 80 µm) and carefully triturated. The cell suspension is plated on poly-D-lysine pre-coated flasks (Costar, Netherlands) and cultivated in Dulbecco's Modified Eagle's Medium (DMEM, Invitrogen, Germany) supplemented with 10% foetal calf serum (FCS, Sigma, Germany), 4 mM glutamine and 50 µg/ml gentamycin (both Biochrom, Germany) at 37°C in a humidified atmosphere of 5% CO2/ 95% air for 7 days with exchanging the medium at day 2 and 6.
After 7 days in vitro (DIV), cells are shaken overnight at 250 rpm to remove oligodendrocytes and microglia. The next day, astrocytes are rinsed twice with CMF-PBS (calcium- and magnesium-free phosphate buffered saline, Biochrom, Germany), trypsinized and subplated on poly-D-lysine pre-coated 96-well plates (Greiner, Germany) at a density of 40,000 cells/well. 24 h after establishing the secondary culture the astrocytes are rinsed with PBS^++ (phosphate buffered saline, Biochrom, Germany) and fed with astrocyte-defined medium (ADM) consisting of DMEM containing 1x G5-supplement (Invitrogen, Germany), 0.5 µg/ml heparan sulfate, and 1.5 µg/ml fibronectin (both Sigma, Germany) (Miller et al., (1993) Brain Res. 618(1):175-8). 3 days later the medium is exchanged and the cells incubated for another 2-3 days, so that at the time of experiments astrocytes are 14-15 DIV.
The increase of cytosolic calcium after stimulation with the mGluR5 agonist L-quisqualate is measured using a fluorometric imaging plate reader (FLIPR) and the Ca-Kit (both Molecular Devices). Prior to addition of agonist or antagonist the medium is aspirated and cells are loaded for 2 h at RT with 150 µl of loading buffer consisting of Ca-sensitive dye reconstituted in sodium chloride (123 mM), potassium chloride (5.4 mM), magnesium chloride (0.8 mM), calcium chloride (1.8 mM), D-glucose (15 mM), and HEPES (20 mM), pH 7.3. Subsequently, plates are transferred to FLIPR to detect calcium increase with the addition of L-quisqualate (100 nM) measured as relative fluorescence units (RFU). If antagonists are tested, these compounds are pre-incubated for 10 minutes at RT before addition of the respective agonist.
For positive modulators, concentration-response curves for quisqualate are performed in the presence and absence of 10 µM modulator to determine the extent of potentiation / agonist potency increase. Thereafter, concentration-response curves for the positive modulator are performed in the presence of a fixed concentration of quisqualate showing the biggest window for potentiation (normally 10-30 nM).
(§1) The fluorescence signal increase after addition of agonist reflects the increase of cytosolic calcium. Inconsistencies in the amount of cells per well are normalised by using the spatial uniformity correction of the FLIPR operating software Screenworks. The mean of replicated temporal data (n=3-5) is calculated and used for graphical representation. For the evaluation of the pharmacology, the calcium changes in response to different concentrations of agonist or antagonist are determined using a maximum minus minimum (MaxMin) calculation.
(§2) All responses (RFU-values) are determined as percentage of control (= maximum response). EC50 and IC50 are calculated according the logistic equation using XLFit (IDBS, UK) or Prism 4.0 (GraphPad Software, USA). The compounds of the present invention have a potency (EC50 or IC50) within a range of about 0.5 nM to about 100 µM. The left shifts for positive or slient allosteric modulators (PAMs or SAMs, respectively) are determined by comparison of EC50 values from agonist dose response curves run in the presence of 10 µM modulator or vehicle (Vanejevs et al., J. Med. Chem., 2008, 51, 634-647).

[2] = target: T2, human metabotropic glutamate receptor mGluR5 (Homo sapiens, UniProt P41594); assay: Cytosolic calcium studies with stably transfected cells (h5CHO), functional assay of mGluR5 receptors; type: cell-based; conditions: Table A1; for h left shift: left shift of agonist EC50, dose response curves in the presence of 10 µM modulator or vehicle, h5CHO cells; for EC50: positive modulators, h5CHO cells preincubated with modulator, stimulated by an EC20 concentration of L-glutamate, read-out: hEC50
T2 construct: expressed in transfected cells; host or cells: CHO-K1 (h5CHO), IPTG-inducible
T2 sequence (P41594 21-1212): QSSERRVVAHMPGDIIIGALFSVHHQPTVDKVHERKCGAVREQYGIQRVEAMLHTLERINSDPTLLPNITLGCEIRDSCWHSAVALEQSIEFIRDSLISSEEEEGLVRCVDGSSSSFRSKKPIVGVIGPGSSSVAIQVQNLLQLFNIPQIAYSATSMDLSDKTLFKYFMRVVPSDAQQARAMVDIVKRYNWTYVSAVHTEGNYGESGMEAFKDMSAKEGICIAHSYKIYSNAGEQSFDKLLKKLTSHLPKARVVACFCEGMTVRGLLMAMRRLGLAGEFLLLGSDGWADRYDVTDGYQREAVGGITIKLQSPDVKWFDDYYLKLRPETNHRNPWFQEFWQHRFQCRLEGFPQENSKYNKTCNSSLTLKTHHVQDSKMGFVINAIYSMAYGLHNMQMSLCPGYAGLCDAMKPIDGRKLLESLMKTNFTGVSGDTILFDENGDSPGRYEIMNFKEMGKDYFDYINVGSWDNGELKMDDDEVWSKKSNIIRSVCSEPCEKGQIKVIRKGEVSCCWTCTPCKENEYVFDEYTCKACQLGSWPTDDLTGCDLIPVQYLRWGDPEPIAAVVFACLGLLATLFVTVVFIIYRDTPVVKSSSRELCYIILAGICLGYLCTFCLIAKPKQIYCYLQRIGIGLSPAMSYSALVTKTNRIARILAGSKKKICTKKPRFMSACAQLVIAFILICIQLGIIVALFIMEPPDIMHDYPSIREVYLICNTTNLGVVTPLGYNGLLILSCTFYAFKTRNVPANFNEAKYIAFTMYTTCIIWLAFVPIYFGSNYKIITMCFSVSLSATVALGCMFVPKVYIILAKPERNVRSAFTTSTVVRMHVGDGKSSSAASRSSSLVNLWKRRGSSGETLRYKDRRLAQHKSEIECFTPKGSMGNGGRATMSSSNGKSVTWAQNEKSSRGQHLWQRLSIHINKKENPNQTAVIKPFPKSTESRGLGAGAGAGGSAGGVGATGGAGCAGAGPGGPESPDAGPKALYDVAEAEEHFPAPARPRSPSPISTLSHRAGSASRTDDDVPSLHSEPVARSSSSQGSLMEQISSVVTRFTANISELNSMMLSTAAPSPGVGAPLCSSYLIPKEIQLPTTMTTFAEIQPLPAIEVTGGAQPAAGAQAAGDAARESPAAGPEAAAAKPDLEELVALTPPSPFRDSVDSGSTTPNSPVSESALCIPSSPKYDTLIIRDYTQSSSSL
Experimental: Chinese hamster ovary cells (CHO-K1 cells), stably transfected for inducible expression of a human metabotropic glutamate receptor mGluR5 to form a cell line called h5CHO, are seeded into black clear bottom 96 well plates at a density of 35.000 cells per well. The standard growth medium used (Dulbecco's modified Eagle Medium, DMEM plus L-proline) contains the appropriate inducer isopropyl-β-D-thiogalactopyranosid (IPTG) to achieve optimal receptor expression. One day after seeding the growth medium is exchanged for reconstituted Ca-Kit (Molecular Devices, USA) and incubated for one hour. Ca-Kit is reconstituted in an assay buffer containing 20 mM HEPES pH 7.4, glutamic-pyruvate transaminase, pyridoxal phosphate and sodium pyruvate in Hank's balanced salt solution (HBBS). Agonistic compounds to the receptor elicit increases in cytosolic calcium which can be measured as increases in fluorescence signals by use of a fluorescence imaging plate reader (Molecular Devices). To analyze their potency to negatively modulate the Ca-response test compounds, dissolved in a final DMSO concentration of 0.5%, are added on-line 5 minutes before the agonist to the receptor (L-quisqualic acid at a concentration giving ~80% of the maximal signal). EC50 values for positive allosteric modulators were determined by stimulating the cells which have been preincubated the modulators by an EC20 concentration of L-glutamate.
as §1, §2

Compound	r left shift [1]	EC50 [1] [nM]	h left shift [2]	EC50 [2] [nM]
CCCN1CCO[C@@H]2c3cc(C#Cc4ccccc4)cnc3CC[C@@H]21 (racemic) [Example 15, (rac)-cis-9-(Phenylethynyl)-4-propyl-3,4,4a,5,6,10b-hexahydro-2H-[1,4]oxazino[2,3-f]quinoline]	5.2-fold	175	3.2-fold	88.6
CCCN1CCO[C@@H]2c3cc(C#Cc4ccccc4F)cnc3CC[C@@H]21 (racemic) [Example 18, (rac)-cis-9-((2-Fluorophenyl)ethynyl)-4-propyl-3,4,4a,5,6,10b-hexahydro-2H-[1,4]oxazino[2,3-f]quinoline]	2.6-fold	613	2.6-fold	247
CCCN1CCO[C@@H]2c3cc(C#Cc4cccc(F)c4)cnc3CC[C@@H]21 (racemic) [Example 19, (rac)-cis-9-((3-Fluorophenyl)ethynyl)-4-propyl-3,4,4a,5,6,10b-hexahydro-2H-[1,4]oxazino[2,3-f]quinoline]	2.6-fold	323	1.9-fold	188
CCCN1CCO[C@@H]2c3cc(C#Cc4ccc(F)cc4)cnc3CC[C@@H]21 (racemic) [Example 20, (rac)-cis-9-((4-Fluorophenyl)ethynyl)-4-propyl-3,4,4a,5,6,10b-hexahydro-2H-[1,4]oxazino[2,3-f]quinoline]	3.3-fold	1350	1.8-fold	394
CCCN1CCO[C@H]2c3cc(C#Cc4ccccc4)cnc3CC[C@@H]21 (racemic) [Example 22, (rac)-trans-9-(Phenylethynyl)-4-propyl-3,4,4a,5,6,10b-hexahydro-2H-[1,4]oxazino[2,3-f]quinoline]	1.8-fold		2.2-fold	1800
CC(C)CN1CCO[C@@H]2c3cc(C#Cc4ccccc4)cnc3CC[C@@H]21 (racemic) [Example 23, (rac)-cis-4-Isobutyl-9-(phenylethynyl)-3,4,4a,5,6,10b-hexahydro-2H-[1,4]oxazino[2,3-f]quinoline]	11.7-fold	132	5.3-fold	4
FC(F)(F)CN1CCO[C@@H]2c3cc(C#Cc4ccccc4)cnc3CC[C@@H]21 (racemic) [Example 24, (rac)-cis-9-(Phenylethynyl)-4-(2,2,2-trifluoroethyl)-3,4,4a,5,6,10b-hexahydro-2H-[1,4]oxazino[2,3-f]quinoline]	4.2-fold	134	2.1-fold	65.3
FC(F)(F)CCN1CCO[C@@H]2c3cc(C#Cc4ccccc4)cnc3CC[C@@H]21 (racemic) [Example 25, (rac)-cis-9-(Phenylethynyl)-4-(3,3,3-trifluoropropyl)-3,4,4a,5,6,10b-hexahydro-2H-[1,4]oxazino[2,3-f]quinoline]	3.6-fold	136	2.0-fold	36.9
COC(=O)N1CCO[C@@H]2c3cc(C#Cc4ccccc4)cnc3CC[C@@H]21 (racemic) [Example 26, (rac)-cis-Methyl 9-(phenylethynyl)-4a,5,6,10b-tetrahydro-2H-[1,4]oxazino[2,3-f]quinoline-4(3H)-carboxylate]	4.4-fold	599	2.9-fold	958
CN(C)C(=O)N1CCO[C@@H]2c3cc(C#Cc4ccccc4)cnc3CC[C@@H]21 (racemic) [Example 27, (rac)-cis-N,N-Dimethyl-9-(phenylethynyl)-4a,5,6,10b-tetrahydro-2H [1,4]oxazino[2,3-f]quinoline-4(3H)-carboxamide]	3.3-fold	427	2.4-fold	884
CC(C)(C)[S+]([O-])N1CCc2ncc(C#Cc3ccccc3)cc2C1 (racemic) [Example 37, (rac)-6-(tert-Butylsulfinyl)-3-(phenylethynyl)-5,6,7,8-tetrahydro-1,6-naphthyridine]	3.3-fold	508	2.5-fold	472
COC(=O)N1C2CCC1c1cc(C#Cc3ccccc3)cnc1C2 (racemic) [Example 58, (rac)-Methyl 3-(phenylethynyl)-6,7,8,9-tetrahydro-5H-5,8-epiminocyclohepta[b]pyridine-10-carboxylate]	3.9-fold	113	2.3-fold	201
COC(=O)N1C2CCC1c1cc(C#Cc3cccc(F)c3)cnc1C2 (racemic) [Example 59, (rac)-Methyl 3-((3-fluorophenyl)ethynyl)-6,7,8,9-tetrahydro-5H-5,8-epiminocyclohepta[b]pyridine-10-carboxylate]	3.3-fold	102	1.8-fold	277
O=C(N1CCC1)N1CCO[C@@H]2c3cc(C#Cc4ccccc4)cnc3CC[C@@H]21 (racemic) [Example 65, (rac)-cis-Azetidin-1-yl-(9-(phenylethynyl)-5,6-dihydro-2H-[1,4]oxazino[2,3-f]quinolin-4(3H,4aH,10bH)-yl)methanone]		3200	1.8-fold	
O=C1OC2(CCCc3ncc(C#Cc4cccc(F)c4)cc32)CN1c1ccccc1 (racemic) [Example 67, (rac)-3'-((3-Fluorophenyl)ethynyl)-3-phenyl-7',8'-dihydro-6'H-spiro[oxazolidine-5,5'-quinolin]-2-one]	1.7-fold	88.3	2.1-fold	1310
COC(=O)N1C[C@H]2Cc3cc(C#Cc4cccc(F)c4)cnc3[C@H]2C1 (racemic) [Example 73, (rac)-cis-Methyl 3-((3-fluorophenyl)ethynyl)-5a,6,8,8a-tetrahydropyrrolo[3',4':4,5]cyclopenta[1,2-b]pyridine-7(5H)-carboxylate]	2.7-fold	219	2.7-fold	546

Reference: EP2650284A1, “Heterocyclic derivatives as metabotropic glutamate receptor modulators” (Merz Pharma GmbH & Co. KGaA, priority 2012, dated 2013)
